Values after ≈ are worked out from the molar mass of the structure shown.
Tests used:
[1] = test system: S. epidermidis RP62A SpsIB(S29P); assay: In vitro antimicrobial activity, MIC by broth micro-dilution; assay type: cell-based; settings: Staphylococcus epidermidis
[2] = test system: S. aureus NCTC-8325 SpsB(P295); assay: as above; assay type: cell-based; settings: Staphylococcus aureus, NCTC8325
[3] = test system: E. coli MIG1655 LepB(P84L); assay: as above; assay type: cell-based; settings: Escherichia coli
Outline: (§1)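 CLSI broth micro-dilution MIC against two-fold serial compound dilutions. Inoculum came from colonies grown 24 h at 35° C. or 28° C., suspended in cation-adjusted Mueller Hinton broth at 1*10^7 CFU/ml, of which 5 μl was added per 100 μl well. LepB(P84L) is a proline-mutant SPase strain with heightened arylomycin susceptibility.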

S. epidermidis RP62A = assay: as above; assay type: cell-based; settings: Staphylococcus epidermidis; S. epidermidis RP62A; read-out: MIC
[4] = test system: P. aeruginosa PA01 LepB(P84L); assay: as above; assay type: cell-based; settings: Pseudomonas aeruginosa
Outline: as §1

[5] = test system: S. epidermidis RP62A SpsIB(S31P); assay: as above; assay type: cell-based; settings: Staphylococcus epidermidis
S. pneumoniae D39 = assay: as above; assay type: cell-based; settings: Streptococcus pneumoniae; S. pneumoniae D39; read-out: MIC
S. aureus SPase = target: T1, S. aureus SPase (Staphylococcus aureus, UniProt P0A070); assay: Steady state binding constant (Kd) determination by fluorescence increase
T1 construct: Full length His-tagged S. aureus SPase protein was expressed similarly; His-tag; made in house; host or cells: E. coli BL21(DE3)
Experimental: (§2) Full length His-tagged E. coli SPase proteins were expressed in E. coli BL21(DE3) containing the plasmid pET23-lepB, P. A. Smith et al. Chem Biol 2010, 1223-1231. Briefly, saturated overnight cultures grown in 20 ml of Luria-Bertani medium supplemented with ampicillin were subcultures into 1.5 L of Luria-Bertani, and shaken at 37° C. until an optical density at 600 nm of 0.4-0.5 was achieved. Protein expression was induced with Isopropyl β-D-1-thiogalactopyranoside (ITPG) at a final concentration of […], and purified using nickel affinity chromatography. Full length His-tagged S. aureus SPase protein was expressed similarly from E. coli BL21(DE3) containing the plasmid pCDF1-SaSpsB or pCDF1-SaSpsB(P29S) and purified similarly to the E. coli protein with the following exceptions. SPase protein was solubilized using 300 mM NaCl, 20 mM Tris pH 8.06, 5 mM Imidazole, 10% glycerol, 1% Triton X-100, prior to purification in Ni-NTA Superflow resin and resin bound protein was washed in a similar buffer containing 1% Elugent in place of Triton X-100 prior to protein eluted in wash buffer supplemented with 300 mM imidazole. Protein purify was judged to exceed 95% by visual inspection of SDS-PAGE followed by Comassie staining. All protein concentrations were determined by BCA assay.
(§3) Steady state binding constants (Kds) of compounds were determined by measuring an increase in fluorescence (λex=280 nm, λem=405 nm) that occurs upon binding to E. coli or S. aureus SPase protein. Two-fold serial dilutions of compounds were prepared in 100% DMSO, and compounds were diluted into binding buffer consisting of 100 mM NaCl, 20 mM Tris-HCl pH 7.4, 1 mM EDTA, 1% n-octyl-3-glucopyranoside (Anatrace), and 10% glycerol, with the final DMSO concentration equal to 1%. 70 μl of the resulting solutions containing various concentrations of compound in binding buffer were aliquoted into triplicate wells of a black polystyrene 384-well plate. 5 μl of blank solution or E. coli or S. aureus protein at concentrations of 750 or 3750 nM respectively, were added to each set of wells for a given inhibitor concentration. Plates were incubated for 14 hours and fluorescence read on an EnVision Multilable plate reader (Perkin Elmer™). Differences in fluorescence values between wells with and without protein were determined and background corrected for protein auto fluorescence. The corrected fluorescence difference data was fit to the quadratic equilibrium binding curve using the non-linear regression analysis software Solver (Frontline Systems®) run in Excel 2010, (Microsoft®), using experimentally determined quantum efficiency constants to convert fluorescence into nanomoles of protein/compound complex.

E. coli SPase = target: T2, E. coli SPase (Escherichia coli, UniProt P00803); assay: as above
T2 construct: Full length His-tagged E. coli SPase proteins were expressed in E. coli BL21(DE3); His-tag; made in house; host or cells: E. coli BL21(DE3)
Experimental: as §2, §3

S. agalactiae ATCC 13813 = assay: In vitro antimicrobial activity, MIC by broth micro-dilution; assay type: cell-based; settings: Streptococcus agalactiae, ATCC13813, read-out: MIC
S. pyogenes M15448 = assay: as above; assay type: cell-based; settings: Streptococcus pyogenes; S. pyogenes M15448; read-out: MIC
Outline: as §1

C. glutamicum DSM 44475 = assay: as above; assay type: cell-based; settings: Corynebacterium glutamicum, DSM44475, read-out: MIC
S. agalactiae COH-1 = assay: as above; assay type: cell-based; settings: Streptococcus agalactiae, COH1; S. agalactiae COH-1; read-out: MIC
S. pneumoniae R800 = assay: as above; assay type: cell-based; settings: Streptococcus pneumoniae, read-out: MIC
Outline: as §1

S. pyogenes ATCC 19615 = assay: as above; assay type: cell-based; settings: Streptococcus pyogenes, ATCC19615, read-out: MIC
[6] = test system: S. epidermidis ATCC 12228; assay: as above; assay type: cell-based; settings: Staphylococcus epidermidis, ATCC12228, read-out: MIC
S. aureus ATCC 29213 = assay: as above; assay type: cell-based; settings: Staphylococcus aureus, ATCC29213, read-out: MIC
R. equi DSM 6939 = assay: as above; assay type: cell-based; settings: Rhodococcus (subgen. Prescottella) equi, DSM6939, read-out: MIC
Outline: as §1

| Structure (SMILES) | MIC [1] [µg/mL] | MIC [2] [µg/mL] | MIC [3] [µg/mL] | MIC (S. epidermidis RP62A) [µg/mL] | MIC [4] [µg/mL] | MIC [5] [µg/mL] | MIC (S. pneumoniae D39) [µg/mL] | Kd (S. aureus SPase) [µM] | Kd (E. coli SPase) [µM] | MIC (S. agalactiae ATCC 13813) [µg/mL] | MIC (S. pyogenes M15448) [µg/mL] | MIC (C. glutamicum DSM 44475) [µg/mL] | MIC (S. agalactiae COH-1) [µg/mL] | MIC (S. pneumoniae R800) [µg/mL] | MIC (S. pyogenes ATCC 19615) [µg/mL] | MIC [6] [µg/mL] | MIC (S. aureus ATCC 29213) [µg/mL] | MIC (R. equi DSM 6939) [µg/mL] |
| --- | --- | --- | --- | --- | --- | --- | --- | --- | --- | --- | --- | --- | --- | --- | --- | --- | --- | --- |
| CCCCCCCCCCCCCCCC(=O)N(C)[C@H](CO)C(=O)N[C@H](C)C(=O)NCC(=O)N(C)[C@@H]1C(=O)N[C@@H](C)C(=O)N[C@H](C(N)=O)Cc2ccc(O)c(c2)-c2cc1ccc2O [Compound 11] | > 64 | 32 (≈ 36.4 µM) | 4 (≈ 4.54 µM) | 2 (≈ 2.27 µM) | > 64 | > 64 | 64 (≈ 72.7 µM) | 2.1 | 0.1 |  |  |  |  |  |  |  |  |  |
| CCCCCCCCCCCCCCCC(=O)N(C)[C@H](CO)C(=O)N[C@H](C)C(=O)NCC(=O)N(C)[C@@H]1C(=O)N[C@@H](C)C(=O)N[C@H](C(=O)NC)Cc2ccc(O)c(c2)-c2cc1ccc2O [Compound 12] | 64 (≈ 71.6 µM) |  | 8 (≈ 8.95 µM) | 2 (≈ 2.24 µM) | > 64 | > 64 | > 64 | 0.6 | 0.24 |  |  |  |  |  |  |  |  |  |
| CCCCCCCCCCCCCCCC(=O)N(C)[C@H](CO)C(=O)N[C@H](C)C(=O)NCC(=O)N(C)[C@@H]1C(=O)N[C@@H](C)C(=O)N[C@H](C(=O)N(C)C)Cc2ccc(O)c(c2)-c2cc1ccc2O [Compound 13] | > 64 |  | 16 (≈ 17.6 µM) | 64 (≈ 70.5 µM) | > 64 | > 64 | > 64 | > 100 | 2 |  |  |  |  |  |  |  |  |  |
| CCCCCCCCCCCCCCCC(=O)N(C)[C@H](CO)C(=O)N[C@H](C)C(=O)NCC(=O)N(C)[C@@H]1C(=O)N[C@@H](C)C(=O)N[C@H](C(=O)N[C@@H](C)C(=O)N2CCCC2C(N)=O)Cc2ccc(O)c(c2)-c2cc1ccc2O (stereo partly drawn) [Compound 14] | > 64 | 8 (≈ 7.63 µM) | 16 (≈ 15.3 µM) | 2 (≈ 1.91 µM) | > 64 | > 64 | 8 (≈ 7.63 µM) | 0.6 | 2.8 |  |  |  |  |  |  |  |  |  |
| CCCCCCCCCCCCCCCC(=O)N(C)[C@H](CO)C(=O)N[C@H](C)C(=O)NCC(=O)N(C)[C@@H]1C(=O)N[C@@H](C)C(=O)N[C@H](C(=O)N[C@@H](C)C(N)=O)Cc2ccc(O)c(c2)-c2cc1ccc2O [Compound 15] | > 64 | 8 (≈ 8.41 µM) | 8 (≈ 8.41 µM) | 2 (≈ 2.1 µM) | > 64 | > 64 | 8 (≈ 8.41 µM) | 2 | 5.8 | > 64 | 16 (≈ 16.8 µM) | > 64 | > 64 | 16 (≈ 16.8 µM) | 16 (≈ 16.8 µM) | > 64 | > 64 |  |
| CCCCCCCCCCCCCCCC(=O)N(C)[C@H](CO)C(=O)N[C@H](C)C(=O)NCC(=O)N(C)[C@@H]1C(=O)N[C@@H](C)C(=O)N[C@H](C(=O)N[C@@H](C)C(=O)N2CCC[C@H]2C(=O)O)Cc2ccc(O)c(c2)-c2cc1ccc2O [Compound 25] | 64 (≈ 61 µM) | > 64 | 8 (≈ 7.62 µM) | 4 (≈ 3.81 µM) | > 64 | > 64 | 8 (≈ 7.62 µM) |  |  | 8 (≈ 7.62 µM) | 16 (≈ 15.2 µM) | 64 (≈ 61 µM) | > 64 | 8 (≈ 7.62 µM) | 16 (≈ 15.2 µM) | 16 (≈ 15.2 µM) | 64 (≈ 61 µM) | > 64 |
| CCCCCCCCCCCCCCCC(=O)N(C)[C@H](CO)C(=O)N[C@H](C)C(=O)NCC(=O)N(C)[C@@H]1C(=O)N[C@@H](C)C(=O)N[C@H](C(=O)NCC(N)=O)Cc2ccc(O)c(c2)-c2cc1ccc2O [Compound 26] | > 64 | > 64 | 8 (≈ 8.54 µM) | 4 (≈ 4.27 µM) | > 64 | > 64 | 8 (≈ 8.54 µM) |  |  | 16 (≈ 17.1 µM) | > 64 | 32 (≈ 34.1 µM) | > 64 | 16 (≈ 17.1 µM) | 8 (≈ 8.54 µM) | 32 (≈ 34.1 µM) | > 64 | 64 (≈ 68.3 µM) |
| CCCCCCCCCCCCCCCC(=O)N(C)[C@H](CO)C(=O)N[C@H](C)C(=O)NCC(=O)N(C)[C@@H]1C(=O)N[C@@H](C)C(=O)N[C@H](C(=O)NCC(=O)N2CCCC2C(N)=O)Cc2ccc(O)c(c2)-c2cc1ccc2O (stereo partly drawn) [Compound 27] | > 64 | > 64 | 8 (≈ 7.73 µM) | 8 (≈ 7.73 µM) | > 64 | > 64 | 16 (≈ 15.5 µM) |  |  | 32 (≈ 30.9 µM) | 32 (≈ 30.9 µM) | 32 (≈ 30.9 µM) | 32 (≈ 30.9 µM) | 32 (≈ 30.9 µM) | 32 (≈ 30.9 µM) | 32 (≈ 30.9 µM) | > 64 | > 64 |
| CCCCCCCCCCCCCCCC(=O)N(C)[C@H](CO)C(=O)N[C@H](C)C(=O)NCC(=O)N(C)[C@@H]1C(=O)N[C@@H](C)C(=O)N[C@H](C(=O)N[C@@H](C)C(=O)C(=O)N(C)C)Cc2ccc(O)c(c2)-c2cc1ccc2O [Compound 28] | > 64 | 32 (≈ 31.8 µM) | 8 (≈ 7.94 µM) | 4 (≈ 3.97 µM) | > 64 | > 64 | 8 (≈ 7.94 µM) |  |  | 16 (≈ 15.9 µM) | 32 (≈ 31.8 µM) | 32 (≈ 31.8 µM) | 32 (≈ 31.8 µM) | 16 (≈ 15.9 µM) | 16 (≈ 15.9 µM) | 16 (≈ 15.9 µM) | > 64 | > 64 |
| CCCCCCCCCCCCCCCC(=O)N(C)[C@H](CO)C(=O)N[C@H](C)C(=O)NCC(=O)N(C)[C@@H]1C(=O)N[C@@H](C)C(=O)N[C@H](C(=O)N[C@H](C)C(=O)C(=O)N(C)C)Cc2ccc(O)c(c2)-c2cc1ccc2O [Compound 29] | > 64 | > 64 | 16 (≈ 15.9 µM) | 8 (≈ 7.94 µM) | > 64 | > 64 | 16 (≈ 15.9 µM) |  |  | 32 (≈ 31.8 µM) | 64 (≈ 63.5 µM) | 32 (≈ 31.8 µM) | 64 (≈ 63.5 µM) | 32 (≈ 31.8 µM) | 16 (≈ 15.9 µM) | 32 (≈ 31.8 µM) | > 64 | > 64 |
| CCCCCCCCCCCCCCCC(=O)N(C)[C@H](CO)C(=O)N[C@H](C)C(=O)NCC(=O)N(C)[C@@H]1C(=O)N[C@@H](C)C(=O)N[C@H](C(=O)NCC(=O)N2CCC[C@H]2C(=O)O)Cc2ccc(O)c(c2)-c2cc1ccc2O [Compound 31] | > 64 | > 64 | 16 (≈ 15.5 µM) | 8 (≈ 7.73 µM) | > 64 | > 64 | 4 (≈ 3.86 µM) |  |  | 8 (≈ 7.73 µM) | 16 (≈ 15.5 µM) | > 64 | > 64 | 8 (≈ 7.73 µM) | 8 (≈ 7.73 µM) | 32 (≈ 30.9 µM) | > 64 | > 64 |

Source: US10501493B2, “Broad spectrum antibiotics” (priority 2011, dated 2019)
